Measurements from ChEMBL document CHEMBL5715954, “Silencing c-Myc translation as a therapeutic strategy through targeting PI3Kδ and CK1ε in hematological malignancies” (Blood, 2017).

Assays:
Set-up in all cases: scale not given: the % may be the effect or the level left
[1] = biological target: T1, Tyrosine-protein kinase TXK (Homo sapiens) (UniProt P42681); assay: Inhibition of human TXK assessed as enzyme activity at 1 uM using EAIYAAPFAKKK as substrate preincubated for 20 mins followed by [gamma-33P]-ATP addition and measured after 120 mins by radiometric Hot-SpotSM Kinase assay relative to control
T1 sequence (whole entry): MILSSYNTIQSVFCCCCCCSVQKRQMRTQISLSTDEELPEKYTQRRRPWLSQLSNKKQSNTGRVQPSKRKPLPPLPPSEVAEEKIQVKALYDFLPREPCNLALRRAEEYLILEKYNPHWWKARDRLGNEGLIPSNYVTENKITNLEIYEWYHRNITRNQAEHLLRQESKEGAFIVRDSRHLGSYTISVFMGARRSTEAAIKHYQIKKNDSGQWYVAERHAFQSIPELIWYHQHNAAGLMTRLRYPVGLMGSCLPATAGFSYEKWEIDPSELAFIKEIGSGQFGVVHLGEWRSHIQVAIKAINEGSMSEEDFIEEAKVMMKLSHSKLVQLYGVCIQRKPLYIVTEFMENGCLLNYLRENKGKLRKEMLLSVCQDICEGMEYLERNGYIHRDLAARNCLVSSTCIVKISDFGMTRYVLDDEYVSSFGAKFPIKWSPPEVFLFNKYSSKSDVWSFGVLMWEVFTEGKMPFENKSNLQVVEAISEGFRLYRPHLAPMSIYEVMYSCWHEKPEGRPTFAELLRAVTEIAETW

[2] = biological target: T2, MAP kinase-activated protein kinase 5 (Homo sapiens) (UniProt Q8IW41); assay: Inhibition of human MAPKAPK5 assessed as enzyme activity at 1 uM using KKLNRTLSVA as substrate preincubated for 20 mins followed by [gamma-33P]-ATP addition and measured after 120 mins by radiometric Hot-SpotSM Kinase assay relative to control
T2 sequence (whole entry): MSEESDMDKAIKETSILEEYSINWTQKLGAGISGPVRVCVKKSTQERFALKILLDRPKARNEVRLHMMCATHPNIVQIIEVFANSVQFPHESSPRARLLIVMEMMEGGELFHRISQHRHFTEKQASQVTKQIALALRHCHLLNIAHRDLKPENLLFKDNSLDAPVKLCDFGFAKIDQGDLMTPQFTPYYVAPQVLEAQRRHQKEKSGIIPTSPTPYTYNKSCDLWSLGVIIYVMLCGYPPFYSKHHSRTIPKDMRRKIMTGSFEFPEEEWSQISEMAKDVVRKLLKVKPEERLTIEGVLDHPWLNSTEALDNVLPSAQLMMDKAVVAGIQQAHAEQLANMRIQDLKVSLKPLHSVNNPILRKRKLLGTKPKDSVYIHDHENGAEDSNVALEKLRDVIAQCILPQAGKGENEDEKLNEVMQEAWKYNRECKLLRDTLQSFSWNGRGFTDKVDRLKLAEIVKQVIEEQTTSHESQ

[3] = biological target: CDK9/cyclin T1 (Homo sapiens) (UniProt O60563+P50750); assay: Inhibition of human CDK9/cyclin T1 assessed as enzyme activity at 1 uM using KTFCGTPEYLAPEVRREPRILSEEEQEMFRDFDYIADWC as substrate preincubated for 20 mins followed by [gamma-33P]-ATP addition and measured after 120 mins by radiometric Hot-SpotSM Kinase assay relative to control; type: protein-complex assay
[4] = biological target: Serine/threonine-protein kinase PAK 5 (Homo sapiens) (UniProt Q9P286); assay: Inhibition of human PAK5 assessed as enzyme activity at 1 uM using RRRLSFAEPG as substrate preincubated for 20 mins followed by [gamma-33P]-ATP addition and measured after 120 mins by radiometric Hot-SpotSM Kinase assay relative to control
Sequence of Serine/threonine-protein kinase PAK 5 (Homo sapiens) (Q9P286 whole entry, looked up): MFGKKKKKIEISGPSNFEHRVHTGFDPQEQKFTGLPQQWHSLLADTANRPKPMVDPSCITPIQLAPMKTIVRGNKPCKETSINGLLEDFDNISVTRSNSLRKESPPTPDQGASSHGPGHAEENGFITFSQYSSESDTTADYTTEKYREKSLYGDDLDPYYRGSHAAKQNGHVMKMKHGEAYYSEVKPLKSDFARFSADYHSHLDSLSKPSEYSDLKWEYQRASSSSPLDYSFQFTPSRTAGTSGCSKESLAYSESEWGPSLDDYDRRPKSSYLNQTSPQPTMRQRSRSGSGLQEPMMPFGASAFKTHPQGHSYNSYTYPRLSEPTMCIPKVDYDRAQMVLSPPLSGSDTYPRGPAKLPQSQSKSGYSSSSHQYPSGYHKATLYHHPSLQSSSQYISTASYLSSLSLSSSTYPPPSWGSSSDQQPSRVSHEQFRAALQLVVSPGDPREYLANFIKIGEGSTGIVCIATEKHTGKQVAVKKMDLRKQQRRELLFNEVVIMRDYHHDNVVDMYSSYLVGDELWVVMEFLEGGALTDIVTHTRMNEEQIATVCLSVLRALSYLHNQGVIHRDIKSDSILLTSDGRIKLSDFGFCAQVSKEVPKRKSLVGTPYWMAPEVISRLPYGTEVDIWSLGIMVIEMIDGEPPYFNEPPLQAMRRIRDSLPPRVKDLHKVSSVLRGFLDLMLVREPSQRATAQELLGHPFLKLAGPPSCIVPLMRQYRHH

[5] = biological target: T3, Protein kinase C zeta type (Homo sapiens) (UniProt Q05513); assay: Inhibition of human PKCzeta assessed as enzyme activity at 1 uM using ERMRPRKRQGSVRRRV as substrate preincubated for 20 mins followed by [gamma-33P]-ATP addition and measured after 120 mins by radiometric Hot-SpotSM Kinase assay relative to control
T3 sequence (whole entry): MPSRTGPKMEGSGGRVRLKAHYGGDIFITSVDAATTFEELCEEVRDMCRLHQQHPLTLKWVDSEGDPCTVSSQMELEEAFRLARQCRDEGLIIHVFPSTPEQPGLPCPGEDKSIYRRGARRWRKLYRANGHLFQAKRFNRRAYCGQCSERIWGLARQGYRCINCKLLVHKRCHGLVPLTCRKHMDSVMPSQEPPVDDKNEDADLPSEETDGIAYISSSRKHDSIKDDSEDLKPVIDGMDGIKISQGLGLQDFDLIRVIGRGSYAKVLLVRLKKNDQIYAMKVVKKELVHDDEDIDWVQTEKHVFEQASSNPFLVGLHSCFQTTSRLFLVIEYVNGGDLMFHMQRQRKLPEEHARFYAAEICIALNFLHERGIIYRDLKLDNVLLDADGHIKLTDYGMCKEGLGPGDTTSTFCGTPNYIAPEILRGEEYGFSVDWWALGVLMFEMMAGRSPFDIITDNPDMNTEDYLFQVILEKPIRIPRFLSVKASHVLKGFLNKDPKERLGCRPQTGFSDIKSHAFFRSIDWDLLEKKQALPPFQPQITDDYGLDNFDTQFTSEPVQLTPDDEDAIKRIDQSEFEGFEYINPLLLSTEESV

[6] = biological target: T4, Dual specificity tyrosine-phosphorylation-regulated kinase 2 (Homo sapiens) (UniProt Q92630); assay: Inhibition of human DYRK2 assessed as enzyme activity at 1 uM using RRRFRPASPLRGPPK as substrate preincubated for 20 mins followed by [gamma-33P]-ATP addition and measured after 120 mins by radiometric Hot-SpotSM Kinase assay relative to control
T4 sequence (whole entry): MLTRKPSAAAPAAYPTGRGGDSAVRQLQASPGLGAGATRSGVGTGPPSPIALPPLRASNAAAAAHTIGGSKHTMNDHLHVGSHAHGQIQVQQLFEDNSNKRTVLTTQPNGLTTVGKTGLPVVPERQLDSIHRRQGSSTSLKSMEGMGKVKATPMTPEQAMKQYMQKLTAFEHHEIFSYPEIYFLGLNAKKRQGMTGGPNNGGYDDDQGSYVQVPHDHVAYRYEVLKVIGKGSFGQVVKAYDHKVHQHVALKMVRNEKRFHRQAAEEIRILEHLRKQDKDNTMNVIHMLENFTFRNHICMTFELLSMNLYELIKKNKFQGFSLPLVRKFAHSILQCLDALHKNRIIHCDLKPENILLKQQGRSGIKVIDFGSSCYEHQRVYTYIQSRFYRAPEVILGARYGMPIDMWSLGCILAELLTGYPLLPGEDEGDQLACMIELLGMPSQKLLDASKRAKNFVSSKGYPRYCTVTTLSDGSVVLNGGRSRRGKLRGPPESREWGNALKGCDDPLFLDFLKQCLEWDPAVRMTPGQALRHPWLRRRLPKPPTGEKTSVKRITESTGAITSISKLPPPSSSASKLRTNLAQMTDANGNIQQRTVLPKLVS

[7] = biological target: Serine/threonine-protein kinase SIK2 (Homo sapiens) (UniProt Q9H0K1); assay: Inhibition of human SIK2 assessed as enzyme activity at 1 uM using AMARAASAAALARRR as substrate preincubated for 20 mins followed by [gamma-33P]-ATP addition and measured after 120 mins by radiometric Hot-SpotSM Kinase assay relative to control
Sequence of Serine/threonine-protein kinase SIK2 (Homo sapiens) (Q9H0K1 whole entry, looked up): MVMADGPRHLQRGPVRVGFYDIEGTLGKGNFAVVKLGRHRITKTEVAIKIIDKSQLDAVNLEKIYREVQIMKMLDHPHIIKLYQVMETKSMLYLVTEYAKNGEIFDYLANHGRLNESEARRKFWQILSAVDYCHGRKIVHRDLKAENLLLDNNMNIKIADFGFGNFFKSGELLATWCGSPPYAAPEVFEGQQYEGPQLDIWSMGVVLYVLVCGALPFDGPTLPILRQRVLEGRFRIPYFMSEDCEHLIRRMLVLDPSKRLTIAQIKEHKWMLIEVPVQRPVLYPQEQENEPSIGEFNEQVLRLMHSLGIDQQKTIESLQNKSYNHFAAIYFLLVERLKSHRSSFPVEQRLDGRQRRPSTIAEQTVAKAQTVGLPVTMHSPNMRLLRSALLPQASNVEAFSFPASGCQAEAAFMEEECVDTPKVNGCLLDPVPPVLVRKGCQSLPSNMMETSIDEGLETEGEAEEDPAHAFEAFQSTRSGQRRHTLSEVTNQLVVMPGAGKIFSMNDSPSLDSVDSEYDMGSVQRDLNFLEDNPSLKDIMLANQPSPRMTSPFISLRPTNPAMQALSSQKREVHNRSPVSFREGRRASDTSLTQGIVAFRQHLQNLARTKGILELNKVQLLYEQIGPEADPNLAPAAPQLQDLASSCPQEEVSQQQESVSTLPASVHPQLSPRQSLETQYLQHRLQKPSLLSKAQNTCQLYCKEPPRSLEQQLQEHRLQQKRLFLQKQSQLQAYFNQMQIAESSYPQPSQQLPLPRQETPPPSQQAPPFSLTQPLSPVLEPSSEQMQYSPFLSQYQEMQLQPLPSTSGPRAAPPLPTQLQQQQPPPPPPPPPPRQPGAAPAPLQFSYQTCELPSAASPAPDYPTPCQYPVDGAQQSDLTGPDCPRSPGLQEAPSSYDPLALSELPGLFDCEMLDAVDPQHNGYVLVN

`CC[C@H](Nc1ncnc2[nH]cnc12)c1nc2cccc(F)c2c(=O)n1-c1ccccc1` was tested. Which Activity [1] did it give?
The Activity was 109%.

What about the Activity [2] of the same molecule?
Its Activity is 99.5%.

And the Activity [3]?
Its Activity is 89.5%.

And the Activity [4]?
Its Activity is 101%.

And the Activity [5]?
Its Activity is 91.5%.

And the Activity [6]?
The Activity was 99%.

What about the Activity [7] of the same molecule?
Its Activity is 98.5%.

For `CC(C)Oc1ccc(-c2nn([C@@H](C)c3oc4ccc(F)cc4c(=O)c3-c3cccc(F)c3)c3ncnc(N)c23)cc1F` [UMBRALISIB], which Activity [1] is on record?
Its Activity is 111%.

And the Activity [2]?
Its Activity is 104%.

And the Activity [3]?
The Activity was 98.5%.

And the Activity [4]?
Its Activity is 96.4%.

And the Activity [5]?
Its Activity is 93.6%.

What about the Activity [6] of the same molecule?
The Activity was 99.2%.

And the Activity [7]?
Its Activity is 95.4%.

What does the source list for `C[C@H](Nc1ncnc2nc[nH]c12)c1cc2cccc(Cl)c2c(=O)n1-c1ccccc1`?
Activity [1]: 101%; Activity [2]: 99%; Activity [3]: 96.2%; Activity [4]: 101%; Activity [5]: 89.9%; Activity [6]: 99%; Activity [7]: 94%
